The values below are quoted from earlier work in US20240293350A1, “DEVELOPMENT OF AN INNOVATIVE INHALATION FORMULATION OF NAFAMOSTAT MESYLATE FOR THE MANAGEMENT OF COVID-19” (EGE UNIVERSITESI, priority 2020, published 2024).

One data set deals with coronavirus. The note with it: primary human mucociliary airway epithelial cells.
The test system of another data set is NL63 virus. The note with it: after infection with NL63 virus, gut-on-a-chip model; compared with Remdesivir.
For data set [1], the system named is SARS-COV-2. The note with it: administered after infection with SARS-COV-2; compared with Remdesivir.
Data set [2] concerns SARS-COV-2. The settings on record: Simian Vero E6 cells infected with SARS-COV-2, cell culture.

Counter-ions that a name gives are not always drawn.

For `N=C(N)c1ccc2cc(OC(=O)c3ccc(N=C(N)N)cc3)ccc2c1` [NM, nafamostat mesylate], the antiviral activity result in the data set on coronavirus is reported as “demonstrated antiviral activity”. Besides, in the data set with NL63 virus, the effectiveness after infection result is given as “much more effective after infection with the NL63 virus than Remdesivir”. Besides, in the data set on SARS-COV-2 [1], the viral load entry is listed as “decreased the viral load more than Remdesivir”. Further, in the data set with SARS-COV-2 [2], the “prevention of infection of cells” value is “prevent cells from being infected with the virus”.
